Test results from patent publication US4584312A, “Substituted 2,3,4,9-tetrahydro-1H-carbazole-1-acetic acid, compositions and use” (American Home Products Corporation, priority 1985, dated 1986).

Legend:
[1] = system: Freund's complete adjuvant hind paw edema; assay: Preventative Adjuvant Edema; type: in vivo, rat (Male Sprague Dawley); settings: 25 mg/kg, p.o.; rats; hind paw edema volume day 0 to day 3; dosed day 0, 1 and 2
Procedure: This test is a primary screen for anti-inflammatory drugs.
Male Sprague Dawley rats (180-200 g) are used. The animals have free access water but food is withdrawn 18 hours before testing.
Freund's complete adjuvant is prepared by suspending 5 mg killed and dried Mycobacterium butyricum (Difco) in 1 ml liquid paraffin. The test compounds are dissolved in distilled water or suspended in distilled water with a few drops of Tween 80 according to their solubility. […]
The method is essentially that described by Wax et al., J. Pharmacol. Exp. Ther., 192, 166-171 (1975). Groups of rats are injected intradermally in the left hind paw with 0.1 ml of Freund's complete adjuvant. The test compound or vehicle is administered immediately before the adjuvant, 24 hours and 48 hours after the adjuvant (day 0, 1 and 2). The injected hind paw volume is measured before the injection of adjuvant and 24 hrs. after the last drug administration (day 3) by means of a plethysmometer (Buxco Electronics Inc.). The difference between the hind paw volume on day 0 and day 3 represents the edema volume. Phenylbutazone (50 mg/kg, p.o.) is included as a positive control.
The mean edema volume (expressed as ml±SEM) IS calculated for each group and the percentage protection conferred by the drug is calculated: [formula] where c is the mean edema volume for the untreated controls and t is the mean edema volume for the drug treated group.

[2] = system: phenylquinone-induced writhing; assay: Phenylquinone Writhing in Mice; type: in vivo, mouse (Male Swiss albino); settings: 25 mg/kg, p.o., phenylquinone i.p. 60 minutes after dosing, writhes counted over 15 min
Procedure: A further test used to determine the utility of the compounds of the present invention is designated: DRUG EFFECTS ON PHENYLQUINONEINDUCED WRITHING IN MICE
The objective of this test is to determine the ability of test drugs to inhibit the nociceptive (pain) response of mice injected with a chemical irritant. This test is a primary screen for both peripheral and centrally acting analgesic drugs.
Male Swiss albino mice (15-25 g). The animals are fasted for 18 hours prior to use but have free access to water.
Drugs are dissolved or suspended according to their solubility in 0.5% methyl cellulose or 0.5% Tween 80. They are administered by gastric lavage in a volume of 5 ml/kg. For primary screening all drugs are administered at the arbitary dosage of 200 mg/kg, p.o. to a group of 10 mice.
A modification of the method of Siegmund et al., Proc. Soc. Exp. Biol. Med., 95, 729-731 (1957) is used. Groups of 5 mice are dosed with the test compound or vehicle control. Sixty minutes later the animals are injected i.p. with 0.3 ml/20 g body weight of a 0.02% solution of phenylquinone (PBQ; 2-phenyl-1,4-benzoquinone) and placed in individual observation boxes. The number of writhing or abdominal squirming movements made by each mouse during the following 15 min. period is counted. The experiment is repeated with another group of 5 mice and the mean number of writhes per mouse for a group of 10 mice is calculated.
Drug treated and vehicle-treated control groups are compared and the percentage protection conferred by the drug is calculated: [formula] where c=mean number of writhes in the control group where t=mean number of writhes in the test drug group

SMILES | % Inhibition (Preventative Adjuvant Edema) [1] | % Inhibition (Phenylquinone Writhing in Mice) [2]
CCc1cccc2c3c([nH]c12)C(CC)(CC(=O)O)CCC3C1CC1 (single isomer, unassigned) [Example 1 f Isomer A, 4-Cyclopropyl-1,8-diethyl-2,3,4,9-tetrahydro-1H-carbazole-1-acetic Acid] | 0% | 31%
CCc1cccc2c3c([nH]c12)C(CC)(CC(=O)O)CCC3C1CC1 (single isomer, unassigned) [Example 1 f Isomer B, 4-Cyclopropyl-1,8-diethyl-2,3,4,9-tetrahydro-1H-carbazole-1-acetic Acid] | 12% | 49%
CCc1cccc2c3c([nH]c12)C(CC)(CC(=O)O)CCC3C1CCCC1 (single isomer, unassigned) [Example 2 c Isomer B, 4-Cyclopentyl-1,8-diethyl-2,3,4,9-tetrahydro-1H-carbazole-1-acetic acid] | 0% | 17%
CCc1cccc2c3c([nH]c12)C(CC)(CC(=O)O)CCC3C1CCCC1 (single isomer, unassigned) [Example 2 d Isomer A, 4-cyclopentyl-1,8-diethyl-2,3,4,9-tetrahydro-1H-carbazole-1-acetic acid] | 0% | 35%
